Experimental data from US6399577B1, “Compositions and methods using myelin-associated glycoprotein (MAG) and inhibitors thereof” (Research Foundation of CUNY, Hunter College, priority 1995, dated 2002).

Key:
MAG [1] = target: T1, MAG (Rattus norvegicus, UniProt P07722); assay: Neurite outgrowth of DRG neurons on MAG-expressing and control CHO cells: reversal of promotion by MAG; format: cell-based; settings: for % Reversal of Promotion: PND 2 DRG neurons; for effect on the promotion of neurite outgrowth by MAG: increasing concentrations of sugar, text summary of TABLE 2
T1 construct: host or cells: dhfr-deficient CHO cells (CHO-MAG2)
T1 sequence (P07722 20-626): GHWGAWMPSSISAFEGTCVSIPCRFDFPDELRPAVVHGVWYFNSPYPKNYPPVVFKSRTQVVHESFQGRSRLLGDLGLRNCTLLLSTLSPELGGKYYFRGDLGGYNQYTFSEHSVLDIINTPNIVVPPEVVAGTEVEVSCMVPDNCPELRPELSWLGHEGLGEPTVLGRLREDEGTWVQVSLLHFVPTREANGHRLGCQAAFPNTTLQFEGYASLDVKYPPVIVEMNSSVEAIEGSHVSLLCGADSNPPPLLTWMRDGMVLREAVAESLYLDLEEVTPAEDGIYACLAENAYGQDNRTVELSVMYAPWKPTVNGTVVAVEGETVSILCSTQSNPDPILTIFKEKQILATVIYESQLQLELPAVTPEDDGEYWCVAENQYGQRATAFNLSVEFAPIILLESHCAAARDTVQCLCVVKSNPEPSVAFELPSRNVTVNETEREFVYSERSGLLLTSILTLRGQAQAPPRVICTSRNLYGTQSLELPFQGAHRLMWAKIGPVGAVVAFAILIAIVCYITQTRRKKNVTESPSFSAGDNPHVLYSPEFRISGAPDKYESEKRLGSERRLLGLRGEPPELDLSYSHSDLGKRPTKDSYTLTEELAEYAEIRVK
Experimental: (§1) Confluent monolayers of control and MAG-expressing CHO cells were established over a 24-hour (h) period in individual chambers of an 8-well tissue culture slide (Lab-Tek). […] Culture medium was SATO containing 2% FCS. Where indicated, 20 mU of VCS was included throughout the coculture period (see Example 4), or monolayers were incubated with small oligosaccharides for one hour before adding the neuronal cell suspension and included throughout the coculture period. After periods of time as indicated, the cocultures were fixed for 30 min with 4% paraformaldehyde and permeabilized with ice-cold methanol for 2 min. The cells were then blocked for 30 min with DMEM containing 10% FCS and incubated for 2 h with a rabbit polyclonal antibody against the neuronal marker GAP43 (1:4000). Cells were washed three times with PBS-BSA (2%) and then incubated for 30 min at room temperature with a biotinylated donkey anti-rabbit Ig (1:300, Amersham), washed three times, and incubated with streptavidin-conjugated Texas Red (1:300, Amersham) for 30 min. After three more washes, the slides were mounted in Permfluor (Baxter) and viewed with a Zeiss fluorescent microscope. The length of the longest neurite for each GAP43-positive neuron was determined using the Biological Detection System image analysis program (Pittsburgh).
The transfected CHO cell assay described in Example 2 may also be used to screen and identify agents that alter neurite growth properties of a particular neuronal cell type and age in a MAG-dependent fashion. Neurite outgrowth was compared for cerebellar (TABLE 1) and DRG (TABLE 2) neurons from PND 2 animals, grown on MAG-expressing and control CHO cells as described in Example 2. Where indicated, small sialic acid-bearing sugars were included in the co-cultures at increasing concentrations. 100% inhibition was taken as the difference in length of neurites on control and MAG-expressing CHO cells. Results are the mean of at least two experiments, with at least 150 neurons measured for each experiment. DD-NANA=2,3-dideoxy sialic acid; SL=sialo 2,3-α lactose.
Single cell suspensions of different neurons at various postnatal ages were washed and resuspended in phosphate-buffered saline (PBS). Approximately 2×10^6 cells were incubated with 50 mU of Vibrio cholera sialidase (VCS, Calbiochem) (a neuraminidase) in a final volume of 0.5 ml for 2 hours at 37° C. Neurons were washed with PBS and resuspended in SATO medium containing 2% FCS for neurite outgrowth experiments, or in PBS for neurite binding assays.

MAG [2] = target: T2, MAG (Rattus norvegicus, UniProt P07722); assay: Radiolabelled MAG-Fc binding to cerebellar neurons; settings: PND1 cerebellar neurons; antibody 5 μg/ml or sialidase treatment of neurons before binding
T2 construct: consisting of the extracellular domain of MAG fused to the Fc region of IgG (MAG-Fc); host or cells: COS cells
T2 sequence (P07722 20-516 limits assumed): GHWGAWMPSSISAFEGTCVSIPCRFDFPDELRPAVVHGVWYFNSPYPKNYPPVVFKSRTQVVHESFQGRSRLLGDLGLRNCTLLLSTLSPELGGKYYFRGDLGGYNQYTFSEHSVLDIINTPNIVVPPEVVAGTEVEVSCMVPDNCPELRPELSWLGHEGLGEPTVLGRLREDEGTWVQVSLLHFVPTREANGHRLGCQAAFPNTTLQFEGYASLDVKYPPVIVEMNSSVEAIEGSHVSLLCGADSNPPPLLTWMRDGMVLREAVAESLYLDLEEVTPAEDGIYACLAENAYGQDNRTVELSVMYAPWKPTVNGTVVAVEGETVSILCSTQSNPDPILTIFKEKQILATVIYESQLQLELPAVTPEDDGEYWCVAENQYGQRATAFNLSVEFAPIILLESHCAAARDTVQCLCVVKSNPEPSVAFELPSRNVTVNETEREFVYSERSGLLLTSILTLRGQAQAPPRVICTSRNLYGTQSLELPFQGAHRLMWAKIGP
Experimental: FIG. 4. sialic acid-dependent Binding of MAG to Cerebellar and DRG Neurons. Radiolabelled MAG-Fc (solid bars) was allowed to bind to PND 1 cerebellar and DRG neurons. Incubations were also carried out in the presence of 5 μg/ml of MAG 513 monoclonal antibody (dark hatched bars) or with neurons that had been desialyated (speckled bars). Each experiment was carried out in quadruplicate. The results are the mean of 3 experiments.
MAG binds to all types of neurons tested in a sialic acid-dependent fashion (Kelm et al., Curr. Biol., 4, pp. 965-72 (1994)). […] Sialidase is an enzyme which removes sialic acid from glycoconjugates.

DRG neurons = assay: Neurite outgrowth of DRG neurons on MAG-expressing versus control CHO cells; format: cell-based, rat
Experimental: FIG. 2. Effect of MAG on Neurite Outgrowth from DRG Neurons of Different Ages. […] 1.
as §1

cerebellar neurons [3] = assay: Neurite outgrowth of cerebellar neurons on MAG-expressing versus control CHO cells; format: cell-based, rat; settings: all ages tested, four MAG-expressing CHO cell lines
Experimental: FIG. 1. Inhibition of Neurite outgrowth from Cerebellar Neurons by MAG. Cerebellar neurons from post-natal day (PND) 1, 4 and 7 were grown overnight on a monolayer of MAG-expressing (clear bars) or control transfected CHO cells (hatched bars). Neurons were stained for GAP-43 antigen and neurite length was measured and the average […] length calculated from at least 150 measurements (+/−SEM).
as §1, with “Cells were washed three times with PBS-BSA (2%) and then incubated for 30 min at room temperature with a biotinylated donkey anti-rabbit Ig (1:300, Amersham), washed three times, and incubated with streptavidin-conjugated Texas Red (1:300, Amersham) for 30 min. After three more washes, the slides were mounted in Permfluor (Baxter) and viewed with a Zeiss fluorescent microscope.” left out

[4] = test system: retinal ganglion (RG), hippocampal (HN), motor neurons (MN) and superior-cervical ganglion (SCG); assay: Neurite outgrowth of different neuronal cell types on MAG-expressing versus control CHO cells; format: cell-based, rat; settings: neurons from one-day old rats (PND1)
Experimental: FIG. 3. Effect of MAG on Neurite Outgrowth from Different Neuronal Cell Types. Various neurons from PND1 animals were isolated and grown overnight on MAG-expressing (dark hatched) or control (light hatched) CHO cells. Average neurite length was calculated as described in FIG. 1.
as §1, with “Cells were washed three times with PBS-BSA (2%) and then incubated for 30 min at room temperature with a biotinylated donkey anti-rabbit Ig (1:300, Amersham), washed three times, and incubated with streptavidin-conjugated Texas Red (1:300, Amersham) for 30 min. After three more washes, the slides were mounted in Permfluor (Baxter) and viewed with a Zeiss fluorescent microscope.” left out

cerebellar neurons [5] = settings: Mukhopadhyay et al.; cited from earlier work
[6] = 1 mM sugar, MAG-expressing CHO cells

## CC(=O)N[C@H]1[C@H]([C@H](O)[C@H](O)CO)OC(C(=O)O)=C[C@@H]1O [DD NANA, 2,3-dideoxy sialic acid]
MAG [1]; [6]
  % Reversal of Promotion: 0%
MAG [1]; 10 mM sugar, MAG-expressing CHO cells
  % Reversal of Promotion: 51%
MAG [1]; 20 mM sugar, MAG-expressing CHO cells
  % Reversal of Promotion: 97%
MAG [1]; 20 mM sugar, control CHO cells
  % Reversal of Promotion: 0%
MAG [1]
  effect on the promotion of neurite outgrowth by MAG: abolished the promotion of neurite outgrowth by MAG completely

## CC(=O)N[C@H]1[C@H]([C@H](O)[C@H](O)CO)O[C@@](O[C@H]2[C@@H](O)[C@@H](CO)O[C@@H](O[C@H]3[C@H](O)[C@@H](O)C(O)O[C@@H]3CO)[C@@H]2O)(C(=O)O)C[C@@H]1O (stereo partly drawn) [SL, sialo 2,3-α lactose]
MAG [1]; [6]
  % Reversal of Promotion: 0%
MAG [1]; 5 mM sugar, MAG-expressing CHO cells
  % Reversal of Promotion: 96%
MAG [1]; 18 mM sugar, MAG-expressing CHO cells
  % Reversal of Promotion: 98%
MAG [1]; 18 mM sugar, control CHO cells
  % Reversal of Promotion: 0%
MAG [1]
  effect on the promotion of neurite outgrowth by MAG: abolished the promotion of neurite outgrowth by MAG completely

## sialidase: Vibrio cholera sialidase (a neuraminidase), enzyme which removes sialic acid from glycoconjugates
MAG [2]
  effect on binding of MAG to cerebellar neurons: abolished
MAG [1]; newborn (PND1) DRG neurons desialyated with sialidase
  effect on promotion of axonal outgrowth by MAG: completely abolished

B1: MAG: myelin-associated glycoprotein expressed on the surface of transfected CHO cells (protein, UniProt P07722 20-626, looked up)
Myelin-associated glycoprotein: GHWGAWMPSSISAFEGTCVSIPCRFDFPDELRPAVVHGVWYFNSPYPKNYPPVVFKSRTQVVHESFQGRSRLLGDLGLRNCTLLLSTLSPELGGKYYFRGDLGGYNQYTFSEHSVLDIINTPNIVVPPEVVAGTEVEVSCMVPDNCPELRPELSWLGHEGLGEPTVLGRLREDEGTWVQVSLLHFVPTREANGHRLGCQAAFPNTTLQFEGYASLDVKYPPVIVEMNSSVEAIEGSHVSLLCGADSNPPPLLTWMRDGMVLREAVAESLYLDLEEVTPAEDGIYACLAENAYGQDNRTVELSVMYAPWKPTVNGTVVAVEGETVSILCSTQSNPDPILTIFKEKQILATVIYESQLQLELPAVTPEDDGEYWCVAENQYGQRATAFNLSVEFAPIILLESHCAAARDTVQCLCVVKSNPEPSVAFELPSRNVTVNETEREFVYSERSGLLLTSILTLRGQAQAPPRVICTSRNLYGTQSLELPFQGAHRLMWAKIGPVGAVVAFAILIAIVCYITQTRRKKNVTESPSFSAGDNPHVLYSPEFRISGAPDKYESEKRLGSERRLLGLRGEPPELDLSYSHSDLGKRPTKDSYTLTEELAEYAEIRVK
DRG neurons; DRG neurons from adult rats
  inhibition of neurite outgrowth: about 40%
DRG neurons; DRG neurons from two-day old rats
  neurite length on MAG-expressing cells compared to control cells: almost twice as long
Cerebellar neurons [3]
  inhibition of neurite outgrowth compared to control cells: at least 70%
[4]
  effect on neurite growth: potent inhibitor of neurite growth in all cell types tested

B2: Po: another myelin protein expressed by CHO cells, specificity control (protein, UniProt P25189 30-248, looked up)
Myelin protein P0: IVVYTDREVHGAVGSRVTLHCSFWSSEWVSDDISFTWRYQPEGGRDAISIFHYAKGQPYIDEVGTFKERIQWVGDPRWKDGSIVIHNLDYSDNGTFTCDVKNPPDIVGKTSQVTLYVFEKVPTRYGVVLGAVIGGVLGVVLLLLLLFYVVRYCWLRRQAALQRRLSAMEKGKLHKPGKDASKRGRQTPVLYAMLDHSRSTKAVSEKKAKGLGESRKDKK
Cerebellar neurons [5]
  effect on neurite outgrowth of CHO cells expressing the protein: lack of effect
